Experimental data published in PubChem BioAssay AID248 (DTP/NCI, 2004).
Where “and” joins values, the source holds several entries; their conditions need not be identical. Equal values may be shown once. Toxic doses and inconclusive results are not listed. Rule as the data show it: active = T/C of 150% or more; inactive = T/C below 125%.

Test system: L1210 leukemia ip in BDF1 mice, survival T/C
Experiment: NCI In Vivo Anticancer Drug Screen. Data for tumor model L1210 Leukemia (intraperitoneal) in B6D2F1 (BDF1) mice
Conditions: endpoint: mean survival time, higher = longer survival
Procedure, shortened: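 Read-out is survival time, reported as the treated-group measurement over the vehicle-control measurement.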

[1] = dose: 100.0 mg/kg/injection, schedule: Q01DX001 (ip), vehicle: saline
[2] = dose: 200.0 mg/kg/injection, schedule: Q01DX001 (ip), vehicle: saline
[3] = dose: 100.0 mg/kg/injection, schedule: Q01DX001 (ip), vehicle: carboxymethylcellulose (CMC)
[4] = dose: 100.0 mg/kg/injection, schedule: Q04DX003 (ip), vehicle: Klucel (hydroxypropylcellulose) (HPC)
[5] = dose: 200.0 mg/kg/injection, schedule: Q01DX001 (ip), vehicle: carboxymethylcellulose (CMC)
[6] = dose: 400.0 mg/kg/injection, schedule: Q01DX001 (ip), vehicle: carboxymethylcellulose (CMC)
[7] = dose: 100.0 mg/kg/injection, schedule: Q01DX009 (ip), vehicle: Klucel (hydroxypropylcellulose) (HPC)
[8] = dose: 100.0 mg/kg/injection, schedule: Q04DX003 (ip), vehicle: saline
[9] = dose: 200.0 mg/kg/injection, schedule: Q01DX009 (ip), vehicle: Klucel (hydroxypropylcellulose) (HPC)
[10] = dose: 200.0 mg/kg/injection, schedule: Q04DX003 (ip), vehicle: saline
[11] = dose: 400.0 mg/kg/injection, schedule: Q01DX009 (ip), vehicle: Klucel (hydroxypropylcellulose) (HPC)
[12] = dose: 400.0 mg/kg/injection, schedule: Q04DX003 (ip), vehicle: saline
[13] = dose: 200.0 mg/kg/injection, schedule: Q04DX003 (ip), vehicle: Klucel (hydroxypropylcellulose) (HPC)
[14] = dose: 400.0 mg/kg/injection, schedule: Q04DX003 (ip), vehicle: Klucel (hydroxypropylcellulose) (HPC)
[15] = dose: 100.0 mg/kg/injection, schedule: Q01DX009 (ip), vehicle: saline
[16] = dose: 200.0 mg/kg/injection, schedule: Q01DX009 (ip), vehicle: saline
[17] = dose: 400.0 mg/kg/injection, schedule: Q01DX009 (ip), vehicle: saline

Measured: T/C

Nc1ncnc2c1ncn2C1OCC(CO)C1O (stereo not given)
inactive: dose: 33.0 mg/kg/injection, schedule: Q01DX001 (ip), vehicle: carboxymethylcellulose (CMC) 97 % of control | dose: 66.5 mg/kg/injection, schedule: Q01DX001 (ip), vehicle: carboxymethylcellulose (CMC) 108 % of control | [1] 107 % of control | dose: 133.0 mg/kg/injection, schedule: Q01DX001 (ip), vehicle: carboxymethylcellulose (CMC) 97 % of control | [2] 101 % of control | dose: 400.0 mg/kg/injection, schedule: Q01DX001 (ip), vehicle: saline 107 % of control

CCCCSc1n[nH]c(=O)[nH]c1=S
inactive: [1] 91 % of control | [2] 96 % of control

CC(C)Cc1ccc(C(C)C(=O)O)cc1 (stereo not given)
inactive: [1] 100 % of control | [2] 92 % of control

O=C(O)c1cc(S(=O)(=O)Cl)ccc1Cl
inactive: dose: 50.0 mg/kg/injection, schedule: Q04DX003 (ip), vehicle: Klucel (hydroxypropylcellulose) (HPC) 105 % of control | [3] 95 % of control | [4] 92 % of control | [5] 104 % of control

CN(C)Cc1c(C(O)(c2ccccc2)c2ccccc2)cc2ccccc2c1Cl
inactive: dose: 50.0 mg/kg/injection, schedule: Q01DX001 (ip), vehicle: carboxymethylcellulose (CMC) 94 % of control | [3] 94 % of control | [5] 102 % of control | [6] 96 % of control

C1CSCS1
inactive: dose: 12.5 mg/kg/injection, schedule: Q04DX002 (ip), vehicle: saline with Tween-80 103 % of control | dose: 25.0 mg/kg/injection, schedule: Q04DX002 (ip), vehicle: saline with Tween-80 106 % of control | dose: 50.0 mg/kg/injection, schedule: Q04DX002 (ip), vehicle: saline with Tween-80 106 % of control

CC(=O)N=C1CCCC1C#N (stereo not given)
inactive: [7] 101 % of control | [8] 105 % of control | [9] 101 % of control | [10] 109 % of control | [11] 95 % of control | [12] 100 % of control

CCOC(=O)CNC(=O)Nc1cccc(F)c1
inactive: dose: 100.0 mg/kg/injection, schedule: Q01DX009 (ip), vehicle: saline with Tween-80 103 % of control | dose: 200.0 mg/kg/injection, schedule: Q01DX009 (ip), vehicle: saline with Tween-80 102 % of control | dose: 400.0 mg/kg/injection, schedule: Q01DX009 (ip), vehicle: saline with Tween-80 96 % of control

Cc1nc(C)c([N+](=O)[O-])s1
inactive: [7] 93 % of control | [4] 100 % of control | [9] 94 % of control | [13] 96 % of control | [11] 101 % of control | [14] 100 % of control

COc1ccc(C23OC2Oc2cc(OC4CCCCO4)ccc2C3=O)cc1 (stereo not given)
inactive: dose: 50.0 mg/kg/injection, schedule: Q01DX001 (sc), vehicle: steriod suspending solution 103 % of control | dose: 100.0 mg/kg/injection, schedule: Q01DX001 (sc), vehicle: steriod suspending solution 108 % of control | dose: 200.0 mg/kg/injection, schedule: Q01DX001 (sc), vehicle: steriod suspending solution 106 % of control | dose: 400.0 mg/kg/injection, schedule: Q01DX001 (sc), vehicle: steriod suspending solution 103 % of control

O=C(Nc1ccc(Cl)cc1[N+](=O)[O-])Oc1ccc(C(=O)OCc2ccccc2)cc1
inactive: [7] 101 % of control | [9] 103 % of control | [11] 110 % of control

c1ccc(P(c2ccccc2)N2CCN(P(c3ccccc3)c3ccccc3)CC2)cc1
inactive: dose: 100.0 mg/kg/injection, schedule: Q04DX002 (ip), vehicle: saline with Tween-80 96 % of control | dose: 200.0 mg/kg/injection, schedule: Q04DX002 (ip), vehicle: saline with Tween-80 93 % of control | dose: 400.0 mg/kg/injection, schedule: Q04DX002 (ip), vehicle: saline with Tween-80 104 % of control

CNC(=O)NCC1OC(OC)C(O)C(O)C1O (stereo not given)
inactive: [4] 100 % of control | [13] 107 % of control | [14] 100 % of control

CN1C(=O)OC2(CCN(Cc3ccccc3)CC2)C1=O
inactive: [4] 102 % of control | [13] 90 % of control | [14] 98 % of control

CCCCCCCCCCC(CCCCCC)C(=O)O (stereo not given)
inactive: dose: 100.0 mg/kg/injection, schedule: Q01DX001 (ip), vehicle: saline with Tween-80 95 % of control | dose: 200.0 mg/kg/injection, schedule: Q01DX001 (ip), vehicle: saline with Tween-80 96 % of control | dose: 400.0 mg/kg/injection, schedule: Q01DX001 (ip), vehicle: saline with Tween-80 90 % of control

CCCCCCCCCCCn1cnc2c(=S)nc[nH]c21
inactive: dose: 12.5 mg/kg/injection, schedule: Q01DX005 (ip), vehicle: other 103 % of control | dose: 25.0 mg/kg/injection, schedule: Q01DX005 (ip), vehicle: other 97 % of control | dose: 50.0 mg/kg/injection, schedule: Q01DX005 (ip), vehicle: other 98 % of control | dose: 100.0 mg/kg/injection, schedule: Q01DX005 (ip), vehicle: other 98 % of control | dose: 200.0 mg/kg/injection, schedule: Q01DX005 (ip), vehicle: other 97 % of control

CCCC[P+](CCCC)(CCCC)Cc1ccc([N+](=O)[O-])cc1
inactive: dose: 12.5 mg/kg/injection, schedule: Q01DX001 (ip), vehicle: Klucel (hydroxypropylcellulose) (HPC) 97 % of control | dose: 12.5 mg/kg/injection, schedule: Q04DX002 (ip), vehicle: Klucel (hydroxypropylcellulose) (HPC) 106 % of control | dose: 25.0 mg/kg/injection, schedule: Q01DX001 (ip), vehicle: Klucel (hydroxypropylcellulose) (HPC) 101 % of control | dose: 25.0 mg/kg/injection, schedule: Q01DX009 (ip), vehicle: Klucel (hydroxypropylcellulose) (HPC) 99 % of control | dose: 25.0 mg/kg/injection, schedule: Q04DX002 (ip), vehicle: Klucel (hydroxypropylcellulose) (HPC) 106 % of control | dose: 50.0 mg/kg/injection, schedule: Q01DX001 (ip), vehicle: Klucel (hydroxypropylcellulose) (HPC) 101 % of control | dose: 50.0 mg/kg/injection, schedule: Q04DX002 (ip), vehicle: Klucel (hydroxypropylcellulose) (HPC) 87 % of control

CC12CCC(C(N)C1=O)C2(C)C (stereo not given)
inactive: [15] 103 % of control | [8] 98 % of control | [16] 105 % of control | [10] 98 % of control | [17] 94 % of control | [12] 97 % of control

CN(C)C(C)(C)CO
inactive: [15] 98 % of control | [8] 96 % of control | [16] 98 % of control | [10] 98 % of control | [12] 101 % of control

CCCCCOc1ccc(C2=C(c3ccccc3)C(=O)C(c3ccccc3)=C2c2ccccc2)cc1
inactive: [3] 100 % of control | [5] 100 % of control | [6] 94 % of control

COc1cccc(/C=c2\[nH]c(=O)/c(=C/c3cccc(OC)c3OC)[nH]c2=O)c1OC
inactive: [7] 94 % of control | [4] 88 % of control | [9] 87 % of control | [13] 91 % of control | [11] 96 % of control | [14] 91 % of control

CC(=O)Nc1ccc(NC(=O)Nc2ccc(C)cc2[N+](=O)[O-])cc1
inactive: [4] 92 % of control | [13] 86 % of control | [14] 94 % of control

C=C1C(=O)OC2C1CCC(C)=C1C(=O)C=C(C)C12 (stereo not given)
inactive: dose: 100.0 mg/kg/injection, schedule: Q04DX002 (ip), vehicle: saline 94 % of control | dose: 200.0 mg/kg/injection, schedule: Q04DX002 (ip), vehicle: saline 97 % of control

O=C(N/N=C\c1ccccc1C(=O)O)c1ccco1
inactive: dose: 100.0 mg/kg/injection, schedule: Q01DX001 (ip), vehicle: other 87 % of control | dose: 200.0 mg/kg/injection, schedule: Q01DX001 (ip), vehicle: other 93 % of control | dose: 400.0 mg/kg/injection, schedule: Q01DX001 (ip), vehicle: other 90 % of control

CC(=O)Nc1ccc(/C=N/Nc2c([N+](=O)[O-])cc(C)cc2[N+](=O)[O-])cc1
inactive: [15] 98 % of control | [16] 96 % of control | [17] 94 % of control

CN/N=C/c1ccc([N+](=O)[O-])cc1
inactive: dose: 25.0 mg/kg/injection, schedule: Q04DX002 (ip), vehicle: DMSO 96 % of control | dose: 50.0 mg/kg/injection, schedule: Q04DX002 (ip), vehicle: DMSO 96 % of control | dose: 100.0 mg/kg/injection, schedule: Q04DX002 (ip), vehicle: DMSO 96 % of control and 98 % of control | dose: 200.0 mg/kg/injection, schedule: Q04DX002 (ip), vehicle: DMSO 88 % of control

CCOC(=O)C(C)(C)CSC(C)(C)C(=O)OCC
inactive: [8] 110 % of control | [10] 101 % of control | [12] 110 % of control
